Data from US20100304998A1, “Chemical Proteomic Assay for Optimizing Drug Binding to Target Proteins” (MARQUETTE UNIVERSITY, priority 2009, published 2010).

Legend:
[1] = test system: human liver proteome; experiment: CRAA affinity column target fishing with nanospray-LC/MS/MS, human liver proteome; type: binding; details: elution with free CRAA
[2] = target: T1, malate dehydrogenase (MDH) (Sus scrofa, UniProt P00346); experiment: 1H NMR STD (saturation transfer difference) binding assay, MDH; set-up: species or system porcine; details: CRAA 3 mM
T1 construct: malate dehydrogenase (porcine heart) were from Sigma Aldrich; purchased Sigma Aldrich; host or cells: porcine heart
T1 sequence (P00346 25-338): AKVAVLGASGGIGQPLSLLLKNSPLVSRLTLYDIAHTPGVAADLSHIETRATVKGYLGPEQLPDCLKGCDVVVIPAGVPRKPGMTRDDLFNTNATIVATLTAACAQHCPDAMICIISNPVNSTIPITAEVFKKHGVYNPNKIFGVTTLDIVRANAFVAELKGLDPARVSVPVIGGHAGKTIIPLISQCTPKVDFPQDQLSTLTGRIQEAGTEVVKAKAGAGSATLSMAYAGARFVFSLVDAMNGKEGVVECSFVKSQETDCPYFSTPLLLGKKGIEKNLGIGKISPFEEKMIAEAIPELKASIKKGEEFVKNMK
Method: ^1H NMR STD (saturation transfer difference) spectra for CRAA binding to either malate dehydrogenase (MDH) (FIG. 13A) or glutamate dehydrogenase (FIG. 13B) establishes that the CRAA scaffold binds proteins that were identified using the proteomic assay, thereby validing the method for identifying non-target proteins. Glutamate dehydrogenase (bovine liver, GDH) and malate dehydrogenase (porcine heart) were from Sigma Aldrich. Both experiments were performed on a 600 MHz Varian NMR system at 25° C. using the cyclonecyclnoe pulse sequence (a steady state NOE experiment) with 256 scans. On and off resonance irradiations were at 0.5 and −11 ppm respectively, performed for 4 seconds each. […] (See FIG. 13). In both cases, CRAA was present at 3 mM and the binding study was done in a 25 mM phosphate buffer at pH 7.6 with 250 ug GDH or 166 ug MDH in a total volume of 0.6 mLs. The use of STD assays in functional proteomic binding studies has been described (Yao and Sem, FEBS Lett. (2005) 579, 661-666, the content of which is incorporated herein by reference in its entirety). To verify that binding had occurred in the cofactor binding site, competition studies were also performed (not shown). […] To test this hypothesis, the competition was reversed where 3 mM NADP+ STD signal was monitored before and after adding CRAA (1 mM). […]

[3] = target: T2, glutamate dehydrogenase (GDH) (Bos taurus, UniProt P00366); experiment: 1H NMR STD (saturation transfer difference) binding assay, GDH; set-up: species or system bovine
T2 construct: Glutamate dehydrogenase (bovine liver, GDH); purchased Sigma Aldrich; host or cells: bovine liver
Method: ^1H NMR STD (saturation transfer difference) spectra for CRAA binding to either malate dehydrogenase (MDH) (FIG. 13A) or glutamate dehydrogenase (FIG. 13B) establishes that the CRAA scaffold binds proteins that were identified using the proteomic assay, thereby validing the method for identifying non-target proteins. Glutamate dehydrogenase (bovine liver, GDH) and malate dehydrogenase (porcine heart) were from Sigma Aldrich. Both experiments were performed on a 600 MHz Varian NMR system at 25° C. using the cyclonecyclnoe pulse sequence (a steady state NOE experiment) with 256 scans. On and off resonance irradiations were at 0.5 and −11 ppm respectively, performed for 4 seconds each. […] (See FIG. 13). In both cases, CRAA was present at 3 mM and the binding study was done in a 25 mM phosphate buffer at pH 7.6 with 250 ug GDH or 166 ug MDH in a total volume of 0.6 mLs. The use of STD assays in functional proteomic binding studies has been described (Yao and Sem, FEBS Lett. (2005) 579, 661-666, the content of which is incorporated herein by reference in its entirety). To verify that binding had occurred in the cofactor binding site, competition studies were also performed (not shown). Addition of 1 mM NADH to the MDH sample caused a decrease in STD signal for CRAA (3 mM) of 35%. The analogous competition with GDH (using NADP+ as competitor) produced no change in STD signal for CRAA—which might be due to higher affinity for […]. To test this hypothesis, the competition was reversed where 3 mM NADP+ STD signal was monitored before and after adding CRAA (1 mM). A decrease in the NADP+ STD signal of 50% was now observed, due to CRAA addition.

[4] = test system: KCNQ potassium channel; details: cited from earlier work
[5] = target: T3, DHPR (dihydrodipicolinate reductase) (Escherichia coli, UniProt P04036); experiment: Covalent labeling of purified DHPR with NHS-CRAA, with NADH or PDC competitors (SDS-PAGE); type: binding, E. coli
T3 construct: made in house; host or cells: E. coli (pET11a DHPR expression construct)
Method: FIG. 8. SDS-PAGE gel of DHPR that has been labeled with NHS-CRAA active ester, but in the presence of increasing concentrations of either NADH or PDC (2,6-pyridine dicarboxylic acid) competitors, Lane 1, protein standard; Lanes 2-6, increasing NADH ([…]); Lanes 7-10, increasing PDC (1.1, 2.3, 4.5, 9.1 mM).
2 (NHS-CRAA) uptake into E. coli cells and labeling of DHPR. To assess whether 1 (CRAA) can make it across bacterial cell walls, and therefore whether 1 is a viable scaffold for anti-infective drug design efforts, experiments were performed to determine if its N-hydroxysuccinimide ester, 2 (NHS-CRAA; FIG. 2), could enter E. coli and label intracellular DHPR (dihydrodipicolinate reductase). DHPR is an anti-infective drug target, and is known to bind the CRAA scaffold (1)^21. The NHS-CRAA active ester (2)^35 was synthesized as in FIG. 2. The NHS (N-hydroxysuccinimide) group reacts with amines, and since it is attached to the linker position of 1 (where the acetic acid chain is attached), it should reside at the interface of the NADH and substrate binding sites^21 (FIG. 1), near lysine 163^36 (see FIG. 7). Indeed, DHPR is labeled with the NHS-CRAA (2) active ester, based on imaging of an SDS-PAGE gel of labeled protein (FIG. 8). Increasing NADH concentration appears to decrease band intensity while PDC has little effect up to 9 mM. […] Next, to explore whether cell wall penetration occurs, uptake of 2 was measured into E. coli that was expressing E. coli DHPR. Since we have recently shown that the CRAA scaffold (1) is bifunctional, in that it is itself weakly fluorescent^33, protein labeling could be monitored by fluorescence imaging of SDS-PAGE gels of crude cell extracts. […] That there is more labeling in cells expressing DHPR is evident based on the more intense color for cells expressing DHPR (FIG. 3c) and on fluorescence images of the cells (FIG. 3d).

[6] = test system: E. coli cells overexpressing DHPR; experiment: NHS-CRAA in-cell uptake and labeling study
Method: E. coli containing the pET11a DHPR expression construct was inoculated into 30 mL LB culture medium, growing overnight at 37° C., 225 rpm. The next day, 10 mL of this culture was added to two flasks (flasks A and B, each containing 800 mL LB medium with 50 μg/mL carbenicillin). The OD600 was monitored until it reached ˜1.0. To flask A was added 0.8 mL of a 0.4 M IPTG stock to start induction^58. Flask B was used as a control without induction. 5 hours later, cells were collected (centrifuged 10 minutes at 4,000 rpm) and washed once with 100 mM PBS buffer, pH 7.4. The Cells were then suspended in 100 mL of pH 7.4 PBS buffer (8 g NaCl, 0.2 g KCl, 1.44 g Na2HPO4, 0.24 g KH2PO4 in 1.0 L) and incubated for 5 minutes. Then, 1 mL NHS-CRAA ester (2) was added to each flask and incubated at room temperature for about 30 minutes (FIG. 3a). […] The gel was fluorescently imaged on a Kodak Image Station, to selectively detect 1 which has λmax for absorbance and emission at 465 nm and 535 nm^37. Cells were fluorescently imaged in PBS buffer after the wash (before lysis) using 495 nm/520 nm excitation/emission filters on the fluorescence microscope. Complementary fluorescence and bright field images may be shifted slightly relative to each other, because of bacterial motion between image captures. […]

[7] = target: KCNQ1 and minK (KCNE1) potassium channel (Homo sapiens, UniProt P51787); details: cardiac delayed rectifier potassium channel of heart muscle cells; read-out: KD for block of the KCNQ1/minK (KCNE1) channel; cited from earlier work
[8] = test system: ERG potassium channels; details: ERG channels expressed by neurons; cited from earlier work
[9] = test system: potassium currents IA, IK, IAHP, IQ, IL; details: IQ and IL currents; cited from earlier work

T3 sequence (P04036 whole entry): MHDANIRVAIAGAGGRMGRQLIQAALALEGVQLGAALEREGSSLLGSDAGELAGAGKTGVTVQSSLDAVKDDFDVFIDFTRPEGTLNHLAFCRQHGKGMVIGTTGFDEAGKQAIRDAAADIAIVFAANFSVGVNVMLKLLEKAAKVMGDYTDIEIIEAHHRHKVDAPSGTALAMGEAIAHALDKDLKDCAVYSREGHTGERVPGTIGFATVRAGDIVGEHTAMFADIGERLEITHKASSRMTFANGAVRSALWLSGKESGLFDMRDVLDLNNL
T2 sequence (P00366 58-558): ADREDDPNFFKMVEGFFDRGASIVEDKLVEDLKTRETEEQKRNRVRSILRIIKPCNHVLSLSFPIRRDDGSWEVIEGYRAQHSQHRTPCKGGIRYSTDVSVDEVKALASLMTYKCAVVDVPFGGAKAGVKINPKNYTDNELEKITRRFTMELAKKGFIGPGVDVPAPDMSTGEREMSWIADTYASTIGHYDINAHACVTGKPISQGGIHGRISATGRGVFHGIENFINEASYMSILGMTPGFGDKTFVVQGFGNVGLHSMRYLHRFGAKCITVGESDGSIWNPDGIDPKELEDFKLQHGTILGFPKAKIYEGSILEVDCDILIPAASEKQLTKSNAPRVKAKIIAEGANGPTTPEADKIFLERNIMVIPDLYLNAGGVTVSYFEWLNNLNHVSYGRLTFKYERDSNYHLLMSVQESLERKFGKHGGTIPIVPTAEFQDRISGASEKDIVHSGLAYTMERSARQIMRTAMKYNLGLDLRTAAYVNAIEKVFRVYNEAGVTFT
Sequence of KCNQ1 and minK (KCNE1) potassium channel (P51787 whole entry): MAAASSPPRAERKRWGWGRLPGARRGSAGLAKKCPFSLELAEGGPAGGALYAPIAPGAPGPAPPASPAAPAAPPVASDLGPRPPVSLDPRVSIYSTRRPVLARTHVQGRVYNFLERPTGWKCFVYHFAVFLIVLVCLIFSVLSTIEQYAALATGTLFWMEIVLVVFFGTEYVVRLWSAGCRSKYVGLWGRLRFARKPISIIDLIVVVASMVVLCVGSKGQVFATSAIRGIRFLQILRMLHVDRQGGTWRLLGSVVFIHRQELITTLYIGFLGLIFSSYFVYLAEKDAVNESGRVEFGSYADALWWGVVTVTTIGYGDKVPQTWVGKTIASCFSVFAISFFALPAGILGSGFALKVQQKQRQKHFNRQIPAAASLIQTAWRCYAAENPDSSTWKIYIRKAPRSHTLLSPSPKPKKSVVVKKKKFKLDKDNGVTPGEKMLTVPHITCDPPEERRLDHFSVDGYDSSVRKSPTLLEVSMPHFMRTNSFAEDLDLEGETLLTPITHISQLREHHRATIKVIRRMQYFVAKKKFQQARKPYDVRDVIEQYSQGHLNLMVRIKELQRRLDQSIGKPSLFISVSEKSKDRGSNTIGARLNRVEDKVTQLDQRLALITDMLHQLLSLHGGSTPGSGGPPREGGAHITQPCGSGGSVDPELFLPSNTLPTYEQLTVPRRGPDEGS

In the case of O=C(O)CN1C(=O)C(=Cc2ccc(O)c(O)c2)SC1=S [CRAA, 5-[(3,4-dihydroxyphenyl)methylene]-4-oxo-2-thioxo-3-thiazolidineacetic acid], the “share of captured proteins that are NAD(P)(H)-binding proteins” value [1] is reported as over 50%, the “binding to malate dehydrogenase by STD difference spectrum” value ([2]; 166 ug MDH, 25 mM phosphate pH 7.6, 25° C.) is reported as “binds to protein” and the “decrease in STD signal for CRAA on addition of NADH” value ([2]; 1 mM NADH competitor, MDH) is reported as 35%. For the same compound, the “binding to glutamate dehydrogenase by STD difference spectrum” value ([3]; CRAA 3 mM, 250 ug GDH, 25 mM phosphate pH 7.6, 25° C.) was “binds to protein”, the “decrease in the NADP+ STD signal due to CRAA addition” value ([3]; GDH, 3 mM NADP+, CRAA 1 mM) was 50% and the “change in STD signal for CRAA with NADP+ as competitor” value ([3]; GDH, NADP+ competitor) was “no change”.

For O=C1c2ccccc2C(Cc2ccnc(F)c2)(Cc2ccnc(F)c2)c2ccccc21 [DMP543, 10, 10-Bis[(2-fluoro-4-pyridinyl)methyl]-9(10H)-anthracenone], the “effect on the KCNQ potassium channel” value [4] is listed as “activate”.

In the case of O=C(CN1C(=O)C(=Cc2ccc(O)c(O)c2)SC1=S)ON1C(=O)CCC1=O [NHS-CRAA, 5-[(3,4-dihydroxyphenyl)methylene]-4-oxo-2-thioxo-3-thiazolidineacetic N-hydroxysuccinimide ester], the “effect of PDC on labeling of DHPR” value ([5]; PDC up to 9 mM) is reported as “little effect”, the “covalent labeling of purified DHPR” value ([5]; imaging of SDS-PAGE gel) is reported as “labeled” and the “effect of NADH on labeling of DHPR” value ([5]; increasing NADH concentration) is reported as “partially blocked”. The “crossing of the bacterial cell wall” value ([6]; intact E. coli cells overexpressing DHPR) was “can cross the cell wall” and the “labeling of DHPR within intact E. coli cells” value ([6]; intact cells overexpressing DHPR, about 30 minutes, room temperature, fluorescence imaging of SDS-PAGE gel) was “significant labeling”.

In the case of O=C1c2ccccc2C(Cc2ccncc2)(Cc2ccncc2)c2ccccc21 [XE991], the Kd [7] is given as 11.1 ± 1.8 µM and the “effect on ERG potassium channels” value [8] is given as “binds to and blocks the activity”.

For O=C1N(c2ccccc2)c2ccccc2C1(Cc1ccncc1)Cc1ccncc1 [linopirdine], the “concentration at which several other potassium currents are blocked” value [9] is listed as “above 10 μM”.
